Measurements as given in paper PMC8182759, “Cryo-Electron Microscopy of Arabidopsis thaliana Phytochrome A in Its Pr State Reveals Head-to-Head Homodimeric Architecture” (Frontiers in Plant Science, 2021).

T1: AtphyA (Arabidopsis thaliana phytochrome A, full length) (Arabidopsis thaliana, UniProt P14712)
T1 construct: gene PHYA; full length, residues 1-1122, C-terminal hexahistidine tag kept; E. coli BL21(DE3) LOBSTR, plasmid pDG388 co-expressing Synechocystis heme oxygenase and PcyA; homodimer (dimer/monomer mixture at pH 9.3)
T1 sequence (P14712 1-1122): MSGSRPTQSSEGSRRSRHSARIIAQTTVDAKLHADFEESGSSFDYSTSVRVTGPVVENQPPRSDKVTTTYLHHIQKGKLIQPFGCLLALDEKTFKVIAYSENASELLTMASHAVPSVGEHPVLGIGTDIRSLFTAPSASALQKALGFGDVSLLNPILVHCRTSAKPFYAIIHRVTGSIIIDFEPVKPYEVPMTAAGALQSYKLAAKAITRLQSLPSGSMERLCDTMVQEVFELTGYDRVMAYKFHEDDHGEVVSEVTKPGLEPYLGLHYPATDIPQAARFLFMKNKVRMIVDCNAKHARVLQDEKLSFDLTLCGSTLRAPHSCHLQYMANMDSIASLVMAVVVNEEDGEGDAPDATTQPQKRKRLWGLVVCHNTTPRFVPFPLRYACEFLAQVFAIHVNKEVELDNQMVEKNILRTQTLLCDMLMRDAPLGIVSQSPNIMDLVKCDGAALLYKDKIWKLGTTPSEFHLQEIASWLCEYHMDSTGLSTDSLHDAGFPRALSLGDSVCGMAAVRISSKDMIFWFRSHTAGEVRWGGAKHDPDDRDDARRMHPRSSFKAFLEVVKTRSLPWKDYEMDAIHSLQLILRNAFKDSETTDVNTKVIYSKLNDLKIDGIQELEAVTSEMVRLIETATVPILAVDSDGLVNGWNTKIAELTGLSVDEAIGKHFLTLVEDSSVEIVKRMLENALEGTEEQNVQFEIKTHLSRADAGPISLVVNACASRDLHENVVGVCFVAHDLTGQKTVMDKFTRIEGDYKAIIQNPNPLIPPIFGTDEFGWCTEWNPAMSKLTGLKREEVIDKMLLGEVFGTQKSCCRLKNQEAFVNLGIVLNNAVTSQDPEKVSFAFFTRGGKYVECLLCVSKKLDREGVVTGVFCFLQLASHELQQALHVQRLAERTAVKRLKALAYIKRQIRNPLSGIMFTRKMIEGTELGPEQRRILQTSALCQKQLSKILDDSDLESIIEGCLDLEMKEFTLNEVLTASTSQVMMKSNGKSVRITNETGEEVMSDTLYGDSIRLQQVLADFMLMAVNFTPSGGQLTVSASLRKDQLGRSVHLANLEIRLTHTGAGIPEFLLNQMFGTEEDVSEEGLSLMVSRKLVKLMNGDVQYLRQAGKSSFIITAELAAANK

B1: Arabidopsis thaliana phytochrome A (receptor, UniProt P14712 1-1122, looked up)
chain: T1 sequence (P14712 1-1122)
modifications: covalently attached phycocyanobilin (PCB) chromophore
notes: Studied in the Pr state after 730 nm illumination; A plasmid map of pDG388 is in the Supplementary Material; No removal of the His tag is described; also called AtphyA; phyA; source: E. coli BL21(DE3) LOBSTR, purified (Ni-NTA IMAC, SEC), coexpressed with Synechocystis sp. heme oxygenase and PcyA

Legend:
[1] = molecular target: T1, AtphyA (Arabidopsis thaliana phytochrome A, full length); experiment: zinc-induced bilin fluorescence on denaturing gel; UV/vis absorbance and photoconversion; assay type: binding; conditions: covalent; bilin attached to a cysteine of the GAF domain; assembled during co-expression in E. coli with heme oxygenase/PcyA; purified at pH 8.0
[2] = molecular target: the molecule itself; experiment: cryo-EM structure; single-particle cryo-EM of AtphyA purified at pH 9.3, Pr state (730 nm pre-illumination), 1-1.5 mg/ml, 136,173 particles, refinement with 2-fold symmetry, ~17 Å

| Molecule | zinc-induced bilin fluorescence on denaturing gel; UV/vis absorbance and photoco [1] | stoichiometry N [2] |
| --- | --- | --- |
| C/C=C1/C(=C/c2[nH]c(/C=C3N=C(/C=C4\NC(=O)C(CC)=C4C)C(C)=C\3CCC(=O)O)c(CCC(=O)O)c2C)NC(=O)[C@@H]1C [phycocyanobilin] | full-length AtphyA could be obtained with covalently attached PCB, as detected by zinc-induced bilin fluorescence | – |
| B1 | – | 2 |
